Several values for one entry are separate records, joined by “and”; a condition that tells them apart may be missing. Equal values may be shown once. Inconclusive results and toxic doses are left out. Rule for the calls: active = survival T/C of 150% or more; inactive = T/C below 125% in these data.
Test system: CD2F1 mice, L1210 leukemia ip, survival T/C
Test: NCI In Vivo Anticancer Drug Screen. Data for tumor model L1210 Leukemia (intraperitoneal) in CD2F1 (CDF1) mice
Settings: higher = longer survival
Summary of the method: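 In this screen, transplantable tumors were grown in mice given either the compound or its vehicle. Results were expressed as the treated measurement relative to the control measurement.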

[1] = endpoint: mean survival time, dose: 12.5 mg/kg/injection, schedule: Q01DX005 (ip), vehicle: water
[2] = endpoint: mean survival time, dose: 25.0 mg/kg/injection, schedule: Q01DX005 (ip), vehicle: water
[3] = endpoint: mean survival time, dose: 50.0 mg/kg/injection, schedule: Q01DX005 (ip), vehicle: water
[4] = endpoint: mean survival time, dose: 100.0 mg/kg/injection, schedule: Q01DX005 (ip), vehicle: water
[5] = endpoint: mean survival time, dose: 200.0 mg/kg/injection, schedule: Q01DX005 (ip), vehicle: water
[6] = endpoint: mean survival time, dose: 100.0 mg/kg/injection, schedule: Q01DX001 (ip), vehicle: saline
[7] = endpoint: mean survival time, dose: 400.0 mg/kg/injection, schedule: Q01DX001 (ip), vehicle: saline
[8] = endpoint: mean survival time, dose: 100.0 mg/kg/injection, schedule: Q01DX009 (ip), vehicle: saline with Tween-80
[9] = endpoint: mean survival time, dose: 100.0 mg/kg/injection, schedule: Q04DX003 (ip), vehicle: saline with Tween-80
[10] = endpoint: mean survival time, dose: 200.0 mg/kg/injection, schedule: Q01DX009 (ip), vehicle: saline with Tween-80
[11] = endpoint: mean survival time, dose: 200.0 mg/kg/injection, schedule: Q04DX003 (ip), vehicle: saline with Tween-80
[12] = endpoint: mean survival time, dose: 12.5 mg/kg/injection, schedule: Q01DX009 (ip), vehicle: saline with Tween-80
[13] = endpoint: mean survival time, dose: 25.0 mg/kg/injection, schedule: Q01DX009 (ip), vehicle: saline with Tween-80
[14] = endpoint: mean survival time, dose: 50.0 mg/kg/injection, schedule: Q01DX009 (ip), vehicle: saline with Tween-80

Measured: T/C

CCSC(C(O)C(O)C(O)CO)n1cc(F)c(=O)[nH]c1=O (centres undefined)
inactive: [1] 104 % of control | [2] 105 % of control | [3] 110 % of control | [4] 105 % of control | [5] 104 % of control

NC1(C(=O)O)CCCC1.[Zn+2]
inactive: [6] 100 % of control | [7] 120 % of control

CC(C)C1OCC(C)(C)C(c2ccccc2)O1 (centres undefined)
inactive: endpoint: mean survival time, dose: 50.0 mg/kg/injection, schedule: Q04DX002 (ip), vehicle: saline 93 % of control | endpoint: mean survival time, dose: 100.0 mg/kg/injection, schedule: Q04DX002 (ip), vehicle: saline 96 % of control | endpoint: mean survival time, dose: 200.0 mg/kg/injection, schedule: Q04DX002 (ip), vehicle: saline 110 % of control

O=C(O)c1ccccc1N=Cc1ccccc1O
inactive: [8] 96 % of control | [9] 103 % of control | [10] 96 % of control | [11] 113 % of control | endpoint: mean survival time, dose: 400.0 mg/kg/injection, schedule: Q01DX009 (ip), vehicle: saline with Tween-80 102 % of control | endpoint: mean survival time, dose: 400.0 mg/kg/injection, schedule: Q04DX003 (ip), vehicle: saline with Tween-80 105 % of control

O=c1[nH]c2cc(Cl)ccc2c2ccc(Cl)cc12
inactive: endpoint: mean survival time, dose: 50.0 mg/kg/injection, schedule: Q01DX001 (ip), vehicle: carboxymethylcellulose (CMC) 98 % of control | endpoint: mean survival time, dose: 100.0 mg/kg/injection, schedule: Q01DX001 (ip), vehicle: carboxymethylcellulose (CMC) 98 % of control | endpoint: mean survival time, dose: 200.0 mg/kg/injection, schedule: Q01DX001 (ip), vehicle: carboxymethylcellulose (CMC) 104 % of control | endpoint: mean survival time, dose: 400.0 mg/kg/injection, schedule: Q01DX001 (ip), vehicle: carboxymethylcellulose (CMC) 95 % of control

C[As](C)SCC1OC(n2ncc(=O)[nH]c2=O)C2OC(C)(C)OC12 (centres undefined)
inactive: endpoint: median survival time, dose: 12.5 mg/kg/injection, schedule: Q01DX005 (ip), vehicle: distilled water + Tween-80 97 % of control | endpoint: median survival time, dose: 25.0 mg/kg/injection, schedule: Q01DX005 (ip), vehicle: distilled water + Tween-80 105 % of control | endpoint: median survival time, dose: 50.0 mg/kg/injection, schedule: Q01DX005 (ip), vehicle: distilled water + Tween-80 94 % of control | endpoint: median survival time, dose: 100.0 mg/kg/injection, schedule: Q01DX005 (ip), vehicle: distilled water + Tween-80 101 % of control | endpoint: median survival time, dose: 200.0 mg/kg/injection, schedule: Q01DX005 (ip), vehicle: distilled water + Tween-80 101 % of control

CCOC(=O)CCCSc1nn(C2OC(CO)C(O)C2O)c(=O)[nH]c1=O (centres undefined)
inactive: [1] 101 % of control | [2] 101 % of control | [3] 101 % of control | [4] 98 % of control | [5] 104 % of control

O=C1CCC(c2ccccc2)=NN1c1ccccc1
inactive: endpoint: mean survival time, dose: 100.0 mg/kg/injection, schedule: Q04DX003 (ip), vehicle: Klucel (hydroxypropylcellulose) (HPC) 98 % of control | endpoint: mean survival time, dose: 200.0 mg/kg/injection, schedule: Q04DX003 (ip), vehicle: Klucel (hydroxypropylcellulose) (HPC) 96 % of control | endpoint: mean survival time, dose: 400.0 mg/kg/injection, schedule: Q04DX003 (ip), vehicle: Klucel (hydroxypropylcellulose) (HPC) 96 % of control

Cc1cc2c(cc1C)[n+]([O-])c1c(=O)[nH]c(=O)[nH]c1[n+]2[O-]
inactive: endpoint: mean survival time, dose: 25.0 mg/kg/injection, schedule: Q04DX002 (ip), vehicle: saline with Tween-80 98 % of control | endpoint: mean survival time, dose: 50.0 mg/kg/injection, schedule: Q04DX002 (ip), vehicle: saline with Tween-80 102 % of control

CC(c1ccccc1)n1ccnc1CO (centres undefined)
inactive: [12] 96 % of control | [13] 104 % of control | [14] 96 % of control and 102 % of control | [8] 91 % of control | [10] 98 % of control

CN(C)N=Nc1cccc(NC(N)=O)c1
inactive: endpoint: mean survival time, dose: 19.75 mg/kg/injection, schedule: Q01DX009 (ip), vehicle: Klucel (hydroxypropylcellulose) (HPC) 114 % of control | endpoint: mean survival time, dose: 79.0 mg/kg/injection, schedule: Q01DX009 (ip), vehicle: Klucel (hydroxypropylcellulose) (HPC) 87 % of control

O=c1c(Cl)c2cc3c(cc2c2ccccc12)nc1ccccc1n3Cc1ccc([N+](=O)[O-])cc1
inactive: endpoint: mean survival time, dose: 100.0 mg/kg/injection, schedule: Q04DX003 (ip), vehicle: saline 95 % of control | endpoint: mean survival time, dose: 200.0 mg/kg/injection, schedule: Q04DX003 (ip), vehicle: saline 106 % of control | endpoint: mean survival time, dose: 400.0 mg/kg/injection, schedule: Q04DX003 (ip), vehicle: saline 91 % of control

CN(C)C1(Cc2ccccc2)c2ccccc2-c2ccc(Br)cc21 (centres undefined)
inactive: [9] 89 % of control | [11] 87 % of control

CCC(/C=C/C1OC(=O)C=CC1C)=C\C(C)C/C=C/C(C)=C/C(C)C(=O)C(C)C(O)C(C)C/C(C)=C/C(=O)O (centres undefined)
inactive: endpoint: median survival time, dose: 6.25 micrograms/kg/injection, schedule: Q01DX005 (ip), vehicle: saline + alcohol 120 % of control | endpoint: median survival time, dose: 12.5 micrograms/kg/injection, schedule: Q01DX005 (ip), vehicle: saline + alcohol 119 % of control | endpoint: median survival time, dose: 12.5 micrograms/kg/injection, schedule: Q01DX009 (ip), vehicle: saline + alcohol 101 % of control | endpoint: median survival time, dose: 25.0 micrograms/kg/injection, schedule: Q01DX005 (ip), vehicle: saline + alcohol 120 % of control | endpoint: median survival time, dose: 25.0 micrograms/kg/injection, schedule: Q01DX009 (ip), vehicle: saline + alcohol 101 % of control | endpoint: median survival time, dose: 50.0 micrograms/kg/injection, schedule: Q01DX009 (ip), vehicle: saline + alcohol 115 % of control

[Cl][Pt][Cl].c1ccc2[nH]c(C3CCCC[N-]3)nc2c1 (centres undefined)
inactive: [12] 93 % of control | [13] 98 % of control | [14] 94 % of control | [10] 91 % of control

CC[P+](C)(CC)c1cccc(OC(=O)NC)c1
inactive: endpoint: mean survival time, dose: 0.05 mg/kg/injection, schedule: Q01DX001 (ip), vehicle: saline 96 % of control | endpoint: mean survival time, dose: 0.1 mg/kg/injection, schedule: Q01DX001 (ip), vehicle: saline 102 % of control | endpoint: mean survival time, dose: 0.2 mg/kg/injection, schedule: Q01DX001 (ip), vehicle: saline 104 % of control

COc1ccc(-c2nc3ccc(C)cc3c(=O)o2)cc1
inactive: [14] 89 % of control | [8] 93 % of control | [10] 89 % of control

Cc1nc(-c2ccccc2)[nH]c(=O)c1Cc1cc2c(cc1O)OCC2
inactive: [6] 100 % of control | endpoint: mean survival time, dose: 200.0 mg/kg/injection, schedule: Q01DX001 (ip), vehicle: saline 101 % of control | [7] 100 % of control

CCCCCCCCCCCCNC(=O)C[n+]1cccc(C(=O)N(C)C)c1
inactive: endpoint: mean survival time, dose: 5.0 mg/kg/injection, schedule: Q01DX009 (ip), vehicle: saline with Tween-80 114 % of control | endpoint: mean survival time, dose: 10.0 mg/kg/injection, schedule: Q01DX009 (ip), vehicle: saline with Tween-80 97 % of control | endpoint: mean survival time, dose: 20.0 mg/kg/injection, schedule: Q01DX009 (ip), vehicle: saline with Tween-80 98 % of control
